The target of one assay is PI3K gamma (Homo sapiens (Human), UniProt P48736). Kind of assay: Biochemical assay for PI3Kgamma (Adapta TR-FRET format). The conditions noted are these: enzymatic assay. An excerpt: For the enzymatic assays, the preparation of PI3K gene constructs, protein expression and purification for HTS are described in WO2012/004299. […] The TR-FRET Adapta™ Universal Kinase Assay Kit was purchased from Invitrogen Corporation (Carlsbad/CA, USA) (Cat. No. PV5099). The kit contains the following reagents: Adapta Eu-anti-ADP Antibody (Europium labeled anti-ADP antibody in HEPES buffered saline, Cat. No. PV5097), Alexa Fluor® 647-labeled ADP tracer (Alexa Fluor® 647-labeled ADP tracer in HEPES buffered saline, Cat. No. PV5098), proprietary TR-FRET dilution buffer pH 7.5 (Cat. No. PV3574). PIK3CD substrate Phosphatidylinositol was obtained from Invitrogen (vesicules consisting of 2 mM PI in 50 mM HEPES pH7.5; Cat. No. PV5371). PIK3CG substrate Phosphatidylinositol-4,5-bisphosphate (PIP(4,5)2 was obtained from Invitrogen (PIP2:PS large unilamellar vesicules consisting of 1 mM PI P2: 19 mM PS in 50 mM HEPES pH7.5, 3 mM MgCl2, 1 mM EGTA; Cat. No. PV5100). Time-Resolved Fluorescence Resonance Energy Transfer (TR-FRET) is a technology based on energy transfer between two adjacent dyes, from an excited electron in one dye (the donor) to an electron of an adjacent dye (the acceptor) through resonance, then released as a photon. This energy transfer is detected by an increase in the fluorescence emission of the acceptor, and a decrease in the fluorescence emission of the donor. TR-FRET assays for protein kinases use a long-lifetime lanthanide Terbium or Europium chelates as the donor species which overcome interference from compound autofluorescence or light scatter from precipitated compounds, by introducing a delay after excitation by a flashlamp excitation source. Results are often expressed as a ratio of the intensities of the acceptor and donor fluorophores. The ratiometric nature of such a value corrects for differences in assay volumes between wells, as well as corrects for quenching effects due to colored compounds. The Adapta™ assay can be divided into two phases: a kinase reaction phase and an ADP detection phase. In the kinase reaction phase, all kinase reaction components are added to the well and the reaction is allowed to incubate for a set period of time specific for each kinase. After the reaction, a detection solution of Eu-labeled anti-ADP antibody, Alexa Fluor® 647-labeled ADP tracer, and EDTA (to stop the kinase reaction) are added to the assay well. ADP formed by the kinase reaction will displace the Alexa Fluor® 647-labeled ADP tracer from the antibody, resulting in a decrease in TR-FRET signal. In the presence of an inhibitor, the amount of ADP formed by the kinase reaction is reduced, and the resulting intact antibody-tracer interaction maintains a high TR-FRET signal. In the Adapta™ assay, the donor (Europium-anti-ADP antibody) is excited at 340 nm and will transfer its energy to the acceptor (Alexa Fluor® 647-labeled ADP tracer). The emission from the Alexa Fluor® 647 can be monitored with a filter centered at 665 nm because it is located between the emission peaks of the donor, which is measured at 615/620 nm. 50 nL of compound dilutions were dispensed onto white 384-well small volume polystyrene plate as described in section 2.2. Then 5 μL of PI3Kgamma and PI3Kdelta and lipid substrate (PI or PIP2:PS) followed by 5 μL of ATP (final assay volume 10 μL) are incubated at RT. […] Reactions were stopped with 5 μL of a mixture of EDTA containing the Eu-labeled anti-ADP antibody and the Alexa Fluor® 647-labeled ADP tracer in TR-FRET dilution buffer (proprietary to IVG). Plates are read 15 to 60 mins later in a Synergy2 reader using an integration time of 0.4 seconds and a delay of 0.05 seconds. […] The control for the 0% inhibition was given by the solvent vehicle of the compounds (90% DMSO in H2O). Data are analyzed using Excel fit software or Graphpad Prism. EC50 values were derived by fitting a sigmoidal dose-response curve to a plot of assay readout over inhibitor concentration. […]
Background: TR-FRET usually uses a lanthanide donor and a delayed reading to cut background.

The target of another assay is PI3K alpha (Homo sapiens (Human), UniProt P42336). As to the kind of experiment: Biochemical assay for PI3Kalpha (Kinase-Glo format). Conditions: enzymatic assay. The procedure:
1.1 Generation of Gene Constructs, Protein Expression and Purification
For the enzymatic assays, the preparation of PI3K gene constructs, protein expression and purification for HTS are described in WO2012/004299.
1.2 Biochemical Assays for PI3Kalpha, PI3Kbeta (Kinase-Glo Format)
The kinase reaction is performed in a final volume of 50 μl per well of a half area COSTAR, 96 well plate. The final concentrations of ATP and phosphatidyl inositol in the assay are 5 μM and 6 μg/mL, respectively. The reaction is started by the addition of PI3 kinase, e.g. PI3 kinase α.
The components of the assay are added per well as follows: • 10 μl test compound in 5% DMSO per well in […]. • Total activity is determined by addition 10 μl of 5% vol/vol DMSO in the first 4 wells of column 1 and the last 4 wells of column 12. • The background is determined by addition of 10 μM control compound to the last 4 wells of column 1 and the first 4 wells of column 12. • 2 mL ‘Assay mix’ are prepared per plate: • 1.912 mL of HEPES assay buffer • 8.33 μl of 3 mM stock of ATP giving a final concentration of 5 μM per well • 1 μl of [^33P]ATP on the activity date giving 0.05 μCi per well • 30 μl of 1 mg/mL PI stock giving a final concentration of 6 μg/mL per well • 5 μl of 1 M stock MgCl2 giving a final concentration of 1 mM per well • 20 μl of the assay mix are added per well. • 2 mL ‘Enzyme mix’ are prepared per plate (x* μl PI3 kinase p110α in 2 mL of kinase buffer). The ‘Enzyme mix’ is kept on ice during addition to the assay plates. * The volume of enzyme is dependent on the enzymatic activity of the batch in use. • 20 μl ‘Enzyme mix’ are added/well to start the reaction. • The plate is then incubated at room temperature for 90 minutes. • The reaction is terminated by the addition of 50 μl WGA-SPA bead (wheat germ agglutinin-coated Scintillation Proximity Assay beads) suspension per well. • The assay plate is sealed using TopSeal-S (heat seal for polystyrene microplates, PerkinElmer LAS [Deutschland] GmbH, Rodgau, Germany) and incubated at room temperature for at least 60 minutes. • The assay plate is then centrifuged at 1500 rpm for 2 minutes using the Jouan bench top centrifuge (Jouan Inc., Nantes, France). • The assay plate is counted using a Packard TopCount, each well being counted for 20 seconds.
In a more preferred assay, the kinase reaction is performed in a final volume of 10 μl per well of a low volume non-binding CORNING, 384 well black plate (Cat. No. #3676). The final concentrations of ATP and phosphatidyl inositol (PI) in the assay are 1 μM and 10 μg/mL, respectively. The reaction is started by the addition of ATP.
The components of the assay are added per well as follows: […]
For orientation: In Kinase-Glo more light means more ATP remaining.

This passage reports IC50 results from patent publication US9840498B2, “Substituted quinazolin-4-one derivatives” (NOVARTIS AG, priority 2013, dated 2017).

Where only a bound is given, the exact number is not on record here.

PI3K alpha, sequence (P42336 21-1068): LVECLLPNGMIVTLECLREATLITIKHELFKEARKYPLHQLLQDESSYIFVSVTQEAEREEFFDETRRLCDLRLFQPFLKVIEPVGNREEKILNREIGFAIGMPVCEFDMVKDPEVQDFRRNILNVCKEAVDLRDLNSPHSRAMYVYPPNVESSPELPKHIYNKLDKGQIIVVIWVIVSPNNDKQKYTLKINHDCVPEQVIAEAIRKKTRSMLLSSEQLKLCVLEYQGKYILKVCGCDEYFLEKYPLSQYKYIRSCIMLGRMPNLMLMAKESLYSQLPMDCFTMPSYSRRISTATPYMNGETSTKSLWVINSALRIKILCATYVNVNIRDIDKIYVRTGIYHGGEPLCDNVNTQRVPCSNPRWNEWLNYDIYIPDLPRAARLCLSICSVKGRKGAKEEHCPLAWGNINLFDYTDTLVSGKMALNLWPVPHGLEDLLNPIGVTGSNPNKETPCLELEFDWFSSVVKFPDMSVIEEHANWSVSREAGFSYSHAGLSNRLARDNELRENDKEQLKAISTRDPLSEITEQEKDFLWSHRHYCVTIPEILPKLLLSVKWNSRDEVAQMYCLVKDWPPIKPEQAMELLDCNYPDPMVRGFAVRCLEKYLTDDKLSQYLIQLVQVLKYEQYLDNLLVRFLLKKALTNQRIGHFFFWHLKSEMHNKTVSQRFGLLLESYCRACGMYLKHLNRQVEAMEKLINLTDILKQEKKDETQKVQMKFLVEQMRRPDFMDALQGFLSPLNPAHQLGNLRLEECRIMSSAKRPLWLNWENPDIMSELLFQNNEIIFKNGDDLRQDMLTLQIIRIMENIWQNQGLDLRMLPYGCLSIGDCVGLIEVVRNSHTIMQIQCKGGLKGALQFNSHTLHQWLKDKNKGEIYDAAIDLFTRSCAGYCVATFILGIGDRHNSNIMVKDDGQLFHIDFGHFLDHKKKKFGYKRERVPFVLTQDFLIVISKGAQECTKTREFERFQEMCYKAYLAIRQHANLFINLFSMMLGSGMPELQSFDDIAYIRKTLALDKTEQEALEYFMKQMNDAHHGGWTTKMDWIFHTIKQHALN
PI3K alpha, sequence (P27986 461-568 partner): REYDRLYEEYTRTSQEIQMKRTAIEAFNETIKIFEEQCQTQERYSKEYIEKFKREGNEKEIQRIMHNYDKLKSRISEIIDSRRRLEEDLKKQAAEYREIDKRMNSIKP
PI3K gamma, sequence (P48736 whole entry): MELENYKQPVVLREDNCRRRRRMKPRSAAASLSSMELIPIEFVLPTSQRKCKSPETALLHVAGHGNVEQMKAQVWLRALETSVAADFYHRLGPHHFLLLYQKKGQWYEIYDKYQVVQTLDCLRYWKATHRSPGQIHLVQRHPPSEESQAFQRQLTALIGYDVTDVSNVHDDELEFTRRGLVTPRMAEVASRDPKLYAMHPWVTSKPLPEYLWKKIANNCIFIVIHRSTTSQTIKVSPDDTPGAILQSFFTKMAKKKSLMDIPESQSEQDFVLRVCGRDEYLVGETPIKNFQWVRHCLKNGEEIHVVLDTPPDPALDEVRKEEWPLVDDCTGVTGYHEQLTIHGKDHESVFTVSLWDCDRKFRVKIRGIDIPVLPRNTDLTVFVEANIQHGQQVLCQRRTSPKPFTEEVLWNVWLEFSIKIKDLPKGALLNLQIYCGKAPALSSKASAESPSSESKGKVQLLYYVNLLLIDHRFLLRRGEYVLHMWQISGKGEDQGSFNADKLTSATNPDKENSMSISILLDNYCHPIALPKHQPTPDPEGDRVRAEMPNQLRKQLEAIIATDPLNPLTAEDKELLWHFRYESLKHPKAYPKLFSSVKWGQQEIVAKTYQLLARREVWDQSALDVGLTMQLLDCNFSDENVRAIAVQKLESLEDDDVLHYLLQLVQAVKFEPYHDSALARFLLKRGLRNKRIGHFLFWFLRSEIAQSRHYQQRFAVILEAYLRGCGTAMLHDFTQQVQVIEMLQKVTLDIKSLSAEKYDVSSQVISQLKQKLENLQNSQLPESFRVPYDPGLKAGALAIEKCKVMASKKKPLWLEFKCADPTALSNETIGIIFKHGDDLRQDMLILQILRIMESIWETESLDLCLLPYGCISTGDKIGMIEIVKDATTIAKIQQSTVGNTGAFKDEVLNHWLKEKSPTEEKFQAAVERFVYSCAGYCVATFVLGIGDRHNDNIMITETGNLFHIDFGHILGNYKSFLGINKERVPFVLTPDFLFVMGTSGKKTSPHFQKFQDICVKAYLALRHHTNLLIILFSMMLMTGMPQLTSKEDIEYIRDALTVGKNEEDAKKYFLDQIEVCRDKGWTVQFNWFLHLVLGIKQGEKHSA

On to `Cc1nc(N)nc(N2C[C@@H](O)C[C@H]2c2nc3cccc(-c4cccnc4)c3c(=O)n2-c2ccccc2)c1C#N` [Example 24, 2-Amino-4-((2S,4S)-4-hydroxy-2-(4-oxo-3-phenyl-5-(pyridin-3-yl)-3,4-dihydroquinazolin-2-yl)pyrrolidin-1-yl)-6-methylpyrimidine-5-carbonitrile], for which the IC50 – broadly, the concentration that gives 50% inhibition – at PI3K gamma stood at 81 nM; against PI3K alpha, 170 nM.
For `COc1ncc(-c2c(F)ccc3nc([C@@H]4C[C@H](O)CN4c4nc(N)nc(C)c4C#N)n(-c4ccccc4)c(=O)c23)s1` [Example 9, 2-Amino-4-((2S,4S)-2-(6-fluoro-5-(2-methoxythiazol-5-yl)-4-oxo-3-phenyl-3,4-dihydroquinazolin-2-yl)-4-hydroxypyrrolidin-1-yl)-6-methylpyrimidine-5-carbonitrile] the same measures were 18 nM and 53 nM.
For `COc1ncc(-c2cccc3nc([C@@H]4CCCN4c4ncnc(N)c4C#N)n(-c4ccccc4)c(=O)c23)cn1` [Example 3, (S)-4-Amino-6-(2-(5-(2-methoxypyrimidin-5-yl)-4-oxo-3-phenyl-3,4-dihydroquinazolin-2-yl)pyrrolidin-1-yl)pyrimidine-5-carbonitrile] the same measures were 1200 nM and 1400 nM.
The like results for `CO[C@H]1C[C@@H](c2nc3cccc(-c4cnn(C)c4)c3c(=O)n2-c2ccccc2)N(c2nc(N)nc3[nH]cnc23)C1` [Example 11, 2-((2S,4S)-1-(2-Amino-9H-purin-6-yl)-4-methoxypyrrolidin-2-yl)-5-(1-methyl-1H-pyrazol-4-yl)-3-phenylquinazolin-4(3H)-one] were, in that order, 230 nM and 2300 nM.
Regarding `Cc1nc(N)nc(N2C[C@@H](O)C[C@H]2c2nc3cccc(-c4cnn(C)c4)c3c(=O)n2-c2ccccc2)c1C#N` [Example 16, 2-Amino-4-((2S,4S)-4-hydroxy-2-(5-(1-methyl-1H-pyrazol-4-yl)-4-oxo-3-phenyl-3,4-dihydroquinazolin-2-yl)pyrrolidin-1-yl)-6-methylpyrimidine-5-carbonitrile], the figures for the IC50 on PI3K gamma and at PI3K alpha were 48 nM and 180 nM, respectively.
Regarding `CCOc1ncc(-c2c(F)ccc3nc([C@@H]4C[C@H](O)CN4c4nc(N)nc(C)c4C#N)n(-c4ccccc4)c(=O)c23)cn1` [Example 29, 2-Amino-4-((2S,4S)-2-(5-(2-ethoxypyrimidin-5-yl)-6-fluoro-4-oxo-3-phenyl-3,4-dihydroquinazolin-2-yl)-4-hydroxypyrrolidin-1-yl)-6-methylpyrimidine-5-carbonitrile], the concentration for half-maximal inhibition (IC50) on PI3K gamma came to 13 nM; against PI3K alpha it was 370 nM.
The like results for `Cn1cnc(-c2cccc3nc([C@@H]4CCCN4c4ncnc(N)c4C#N)n(-c4ccccc4)c(=O)c23)c1` [Example 15, (S)-4-Amino-6-(2-(5-(1-methyl-1H-imidazol-4-yl)-4-oxo-3-phenyl-3,4-dihydroquinazolin-2-yl)pyrrolidin-1-yl)pyrimidine-5-carbonitrile] were, in that order, more than 10000 nM and more than 10000 nM.
In the case of `Cc1nc(N)nc(N2CCC[C@H]2c2nc3cccc(-c4cccnc4)c3c(=O)n2-c2ccccc2)c1C#N` [Example 20, (S)-2-Amino-4-methyl-6-(2-(4-oxo-3-phenyl-5-(pyridin-3-yl)-3,4-dihydroquinazolin-2-yl)pyrrolidin-1-yl)pyrimidine-5-carbonitrile], the IC50 is 140 nM on PI3K gamma and 260 nM at PI3K alpha.
The like results for `N#Cc1c(N)ncnc1N1CCC[C@H]1c1nc2cccc(C#CCO)c2c(=O)n1-c1ccccc1` [Example 33, (S)-4-Amino-6-(2-(5-(3-hydroxyprop-1-yn-1-yl)-4-oxo-3-phenyl-3,4-dihydroquinazolin-2-yl)pyrrolidin-1-yl)pyrimidine-5-carbonitrile] were, in that order, 81 nM and 620 nM.
For `COc1cncc(-c2cccc3nc([C@@H]4CCCN4c4nc(N)nc(C)c4C#N)n(-c4ccccc4)c(=O)c23)c1` [Example 18, (S)-2-Amino-4-(2-(5-(5-methoxypyridin-3-yl)-4-oxo-3-phenyl-3,4-dihydroquinazolin-2-yl)pyrrolidin-1-yl)-6-methylpyrimidine-5-carbonitrile] the same measures were 89 nM and 56 nM.
The like results for `COc1cncc(-c2cccc3nc([C@@H]4C[C@H](O)CN4c4nc(N)nc(C)c4C#N)n(-c4ccccc4)c(=O)c23)c1` [Example 25, 2-Amino-4-((2S,4S)-4-hydroxy-2-(5-(5-methoxypyridin-3-yl)-4-oxo-3-phenyl-3,4-dihydroquinazolin-2-yl)pyrrolidin-1-yl)-6-methylpyrimidine-5-carbonitrile] were, in that order, 65 nM and 48 nM.
With `COc1ncc(-c2cccc3nc([C@@H]4C[C@H](O)CN4c4nc(N)nc(C)c4C#N)n(-c4ccccc4)c(=O)c23)cn1` [Example 22, 2-Amino-4-((2S,4S)-4-hydroxy-2-(5-(2-methoxypyrimidin-5-yl)-4-oxo-3-phenyl-3,4-dihydroquinazolin-2-yl)pyrrolidin-1-yl)-6-methylpyrimidine-5-carbonitrile], the results for the IC50 on PI3K gamma and against PI3K alpha were 130 nM and 580 nM, respectively.
On to `Cc1nc(N)nc(N2C[C@@H](O)C[C@H]2c2nc3cccc(-c4cncnc4)c3c(=O)n2-c2ccccc2)c1C#N` [Example 26, 2-Amino-4-((2S,4S)-4-hydroxy-2-(4-oxo-3-phenyl-5-(pyrimidin-5-yl)-3,4-dihydroquinazolin-2-yl)pyrrolidin-1-yl)-6-methylpyrimidine-5-carbonitrile], for which the figures for the half-maximal inhibitory concentration (IC50) on PI3K gamma and at PI3K alpha were 410 nM and 530 nM, respectively.
